Results taken from PubChem BioAssay (NCI).
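Grown in 96-well plates, cells were treated for 48 hours with each compound at five concentrations. Insufficient inhibition: endpoint recorded as highest concentration tested. TGI denotes the concentration required for complete inhibition of growth.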

What was measured:
Test in all cases: NCI tumour cell line growth inhibition, 48 h
NCI-H23 lung = tested on: NCI-H23 lung
HT29 colon = tested on: HT29 colon
HOP-62 NSCLC = tested on: HOP-62 NSCLC
OVCAR-3 ovarian = tested on: OVCAR-3 ovarian
RXF 393 renal = tested on: RXF 393 renal
HCT-15 colon = tested on: HCT-15 colon
SK-MEL-5 melanoma = tested on: SK-MEL-5 melanoma
A549 NSCLC = tested on: A549 NSCLC
SNB-75 CNS = tested on: SNB-75 CNS
MALME-3M melanoma = tested on: MALME-3M melanoma

Row | SMILES | TGI (NCI-H23 lung) [µM] | TGI (HT29 colon) [µM] | TGI (HOP-62 NSCLC) [µM] | TGI (OVCAR-3 ovarian) [µM] | TGI (RXF 393 renal) [µM] | TGI (HCT-15 colon) [µM] | TGI (SK-MEL-5 melanoma) [µM] | TGI (A549 NSCLC) [µM] | TGI (SNB-75 CNS) [µM] | TGI (MALME-3M melanoma) [µM]
1 | CCOP(=O)(/C=C/n1cc(C)c(=O)[nH]c1=O)OCC | > 100 | > 100 | > 100 | > 100 | > 100 | > 100 | > 100 | > 100 | > 100 | –
2 | Nc1[nH]c(=O)nc2c1ncn2C1OC(CO)C(O)C1O (stereo not given) | > 100 | > 100 | > 100 | > 100 | > 100 | 95.4 | > 100 | > 100 | 20.6 | > 100
3 | COC1(CC[C@@H](C)COC2OC(CO)C(O)C(O)C2O)OC2C[C@H]3[C@@H]4CC[C@H]5C[C@@H](OC6OC(CO)C(OC7OC(CO)C(O)C(O)C7O)C(O)C6OC6OC(C)C(O)C(O)C6O)[C@H](O)C[C@]5(C)[C@H]4CC[C@]3(C)C2[C@@H]1C (stereo not given in full) | – | 4.99 | 3.69 | 3.3 | 3.85 | > 22.8 | 3.36 | 3.83 | 3.49 | 3.33
4 | CCC1(c2ccc(N3C(=O)c4cccc5cc([N+](=O)[O-])cc(c45)C3=O)cc2)CCC(=O)NC1=O (stereo not given) | > 66.2 | > 100 | 26.9 | 56.5 | 20.4 | > 100 | > 100 | > 100 | 68 | 92.2
5 | O=c1[nH]c(=O)n(COC(CO)CO)cc1-c1ccccc1 | > 100 | > 100 | > 100 | > 100 | – | > 100 | > 100 | > 100 | > 100 | > 100
6 | O=S(=O)(Nc1nc2ccccc2nc1N1CCCCCC1)c1ccccc1 | 44.2 | > 100 | 84.5 | 36.5 | 57.5 | 45 | 29.5 | > 100 | 86.1 | > 100
7 | O=C(O)CSC(CC(=O)c1ccc(Cl)cc1)c1ccc(Cl)cc1 (stereo not given) | > 100 | > 100 | 97.1 | 50 | – | > 100 | > 100 | > 100 | > 100 | –
8 | COc1ccc(N2C(=O)C3c4[nH]c5c(C)cccc5c4C4CCC(C(C)C)CC4C3C2=O)cc1 (stereo not given) | 40.7 | 13.8 | 22.7 | 28.4 | – | 40.6 | > 100 | > 100 | 9.4 | 36.8
9 | C/C(=N\Nc1nc2ccccc2s1)c1ccncn1 | 5.55 | 14 | > 36.3 | – | 24.7 | 15.9 | 7.08 | > 35 | 24.4 | 20.3
10 | N[C@@H](CCC(=O)NC(Cc1ccccc1)C(=O)NCP(=O)(O)O)C(=O)O (stereo not given in full) | > 100 | > 100 | > 100 | > 100 | – | > 100 | > 100 | > 100 | – | > 100
11 | CN(CCCCCl)P(=O)(OCc1ccc([N+](=O)[O-])o1)OCC1OC(n2ccc(N)nc2=O)C(O)C1O (stereo not given) | 33.1 | 41.4 | 66.8 | 17.2 | 60.2 | > 100 | 1.15 | 2.61 | 5.59 | 8.36
12 | C[s+]1c2ccccc2c2ccccc21 | – | > 100 | > 100 | > 100 | > 100 | > 100 | > 100 | > 100 | – | > 100
13 | NC(=O)CCC(N=c1c2ccccc2n(O)c2ccccc12)C(=O)O (stereo not given) | > 100 | – | > 100 | > 100 | – | > 100 | > 100 | > 100 | > 100 | > 100
14 | CC(O)c1nc(C#N)c(N)o1 (stereo not given) | > 100 | > 100 | > 100 | > 100 | – | – | > 100 | > 100 | > 100 | > 100
15 | CC(C)(C)C(=O)Nc1c(C=O)ccc2[nH]cnc12 | > 100 | – | > 100 | > 100 | > 100 | > 100 | > 100 | > 100 | > 100 | –
16 | O=[N+]([O-])c1ccc(-n2nc3ccc4nonc4c3n2)cc1 | > 100 | > 100 | 44.7 | > 100 | – | > 100 | > 100 | > 100 | 30.8 | 89.2
17 | O=C1c2ccccc2-c2nc3ccncc3n21 | > 100 | > 100 | > 100 | > 100 | > 100 | > 100 | – | > 100 | > 100 | > 100
18 | COc1cc2c[n+]3c4c(c2c(OC)c1OC)CCCC4CC3 (stereo not given) | > 100 | > 100 | > 100 | > 100 | > 100 | > 100 | 46.9 | > 100 | – | 46.9
19 | C=C(C)C1CC(=O)C(C)=C(O)C1 (stereo not given) | > 100 | > 100 | > 100 | – | – | > 100 | > 100 | > 100 | > 100 | > 100
20 | CC(=O)n1[nH]c(=O)n(-c2ccc(Cl)cc2)c1=O | > 100 | > 100 | > 100 | > 100 | > 100 | > 100 | > 100 | > 100 | – | > 100
21 | COc1ccc(-c2ccc(C(=O)C=P(c3ccccc3)(c3ccccc3)c3ccccc3)cc2)cc1 | 51 | 19.4 | 43.9 | 20.1 | 27 | 29.6 | 22.4 | 25.9 | – | 43.9
22 | COc1cc2c(/C=C3/C(=O)Nc4ccccc43)c(Cl)n(Cc3ccc(Cl)cc3)c2cc1C | 0.644 | – | 0.821 | 0.432 | 4.85 | 0.969 | 1.62 | 10.6 | 0.898 | 14.5
23 | CCc1nc(N)c2nc(-c3cccs3)oc2n1 | > 100 | > 100 | > 100 | > 100 | > 100 | > 100 | > 100 | > 100 | > 100 | –

Row | SMILES | TGI (NCI-H23 lung) [µM] | TGI (HT29 colon) [µM] | TGI (HOP-62 NSCLC) [µM] | TGI (OVCAR-3 ovarian) [µM] | TGI (RXF 393 renal) [µM] | TGI (HCT-15 colon) [µM] | TGI (SK-MEL-5 melanoma) [µM] | TGI (A549 NSCLC) [µM] | TGI (SNB-75 CNS) [µM] | TGI (MALME-3M melanoma) [µM]
24 | O=C1/C(=C/c2ccccc2)Oc2cc(O)ccc21 | > 100 | > 100 | > 100 | > 100 | > 100 | > 100 | > 100 | > 100 | > 100 | –
25 | Clc1ccc2c(c1)N(CCCN1CCCC13CCCCC3)c1ccccc1S2 | 44.2 | 15.7 | 33.4 | 34.4 | 17.6 | 42.5 | > 56 | 40.2 | – | 28.1
26 | CCC1(O)CC(CCN(Cc2ccccc2)C(=O)OCc2ccccc2)C(OCc2ccccc2)C1O (stereo not given) | 30.4 | 31 | 29.6 | 26.8 | 41.9 | 31.7 | 30.9 | 27.1 | 25.7 | –
27 | COc1cc2c(cc1OC)C(=O)N(c1ccc(OCCN3CCCC3)cc1)C2 | > 100 | > 100 | > 100 | > 100 | > 100 | > 100 | > 100 | > 100 | – | > 100
28 | COC(=O)C1=C(CCCCO[Si](C)(C)C(C)(C)C)NC(=O)N2[C@H](CCOCc3ccccc3)CC[C@@H]12 | > 100 | – | > 100 | > 100 | – | > 100 | 28.3 | > 100 | > 100 | > 100
29 | O=c1c2cc(Br)cc(Br)c2[nH]c(=S)n1-c1ccc(N=Nc2ccc(O)c3cccnc23)cc1 | – | > 100 | > 100 | 28.5 | > 100 | – | 29 | > 100 | > 100 | 43.2
30 | CCN(CC)C(=S)SC(C(=O)Nc1nnc(-c2ccc(Cl)cc2)o1)c1ccccc1 (stereo not given) | > 100 | 16.9 | 43.1 | 10.2 | 48.8 | 18.9 | 19.4 | 52.1 | – | 32.7
31 | Cc1cn(CCCCCCOC(=O)NC(CCCNC(N)=O)C(=O)O)c(=O)[nH]c1=O (stereo not given) | > 100 | > 100 | > 100 | > 100 | > 100 | > 100 | – | > 100 | > 100 | –
32 | O=C(CNc1ccccc1C(=O)O)Nn1cnc2ccc(S(=O)(=O)Nc3ccccc3C(=O)O)cc2c1=O | > 100 | > 100 | > 100 | > 100 | – | > 100 | – | > 100 | > 100 | > 100
33 | Nc1c(C(=O)c2ccc(Cl)c(Cl)c2)[nH]c(NCc2ccccc2)c1C(=S)Nc1ccccc1 | 41.6 | 11 | 34.7 | 38.5 | 27.3 | 6.27 | – | 23.3 | 24.1 | 11.7
34 | C=C1CCC[C@@H](C)C(O)[C@@H]2OC(=O)C(=C)[C@@H]2C[C@@H](OC(C)=O)[C@@]2(C)CC[C@@H]1O2 (stereo not given in full) | 15.2 | 15.3 | 18.7 | 11.5 | 12.9 | 10.6 | 13.7 | > 50 | 10.1 | –
35 | COC(=O)c1sc(=O)sc1SCc1cccc(CSc2sc(=O)sc2C(=O)OC)c1 | > 100 | > 100 | 35.7 | > 100 | 73.2 | > 100 | > 100 | > 100 | – | 49.5
36 | Cn1c(=O)c2c(nc3[nH]c(=O)c(Br)cn32)n(C)c1=O | > 100 | > 100 | > 100 | > 100 | > 100 | > 100 | > 100 | > 100 | > 100 | –
37 | Cc1c(C)c2c(c(N)c1C#N)C(=O)N(N)C2=O | > 100 | > 100 | – | > 100 | > 100 | > 100 | > 100 | > 100 | > 100 | > 100
38 | O=C(O)c1c(CC(Cc2ccc3c(c2)CCC3)C(=O)O)ccc2c1CCC2 (stereo not given) | > 100 | > 100 | > 100 | > 100 | – | > 100 | > 100 | > 100 | – | > 100
39 | N#Cc1c(-c2ccc([N+](=O)[O-])cc2)c(C#N)c(=O)n(NS(=O)(=O)c2ccccc2)c1S | – | > 100 | > 100 | – | > 100 | > 100 | 30.4 | > 100 | > 100 | > 100
40 | N#Cc1nc(CCc2nc(C#N)c(N)o2)oc1N | > 10 | > 10 | > 10 | – | > 10 | > 10 | > 10 | > 10 | > 10 | > 10
41 | CC1=C(C)C(=O)C(C2=CC(=O)c3ccccc3C2=O)=C(C2=CC(=O)c3ccccc3C2=O)C1=O | 45.5 | 28.7 | 33.4 | – | 22.4 | > 100 | – | > 100 | 31.5 | 4.33
42 | CCOC(=O)c1c(N)sc2c1C(C(=O)OCC)CCCC2 (stereo not given) | > 100 | > 100 | > 100 | – | > 100 | > 100 | > 100 | > 100 | > 100 | > 100
43 | Cc1nc(NC(C)(CO)CO)nc(N/N=C/c2ccc(Cl)cc2)c1C(=O)Nc1ccc(Cl)cc1 | > 100 | > 100 | > 100 | > 100 | > 100 | > 100 | – | > 100 | > 100 | > 100
44 | O=P1(N(CCCl)CCCl)Oc2ccc(Cl)cc2C(C(Cl)(Cl)Cl)c2cc(Cl)ccc2O1 (stereo not given) | > 100 | 18.9 | 27.9 | 24.3 | 29.3 | 23.5 | 24 | > 100 | 37.9 | –
45 | COP(=O)(OC)OCN(C)CC/C=C(\C)CC/C=C(\C)CCC=C(C)C | 34.7 | – | 29.7 | 29.9 | 49.1 | 30.3 | 25.3 | 40.9 | 28 | 28.2
